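Interpolation was linear, between the two tested concentrations surrounding the appropriate level; five concentrations were tested over 48 hours in 96-well plates. GI50 = concentration required for 50% inhibition of growth. TGI: concentration producing complete growth inhibition.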
Tests used:
Assay in all cases: NCI anticancer screen, dose series, 48 h
CAKI-1 renal = test system: CAKI-1 renal
HOP-92 NSCLC = test system: HOP-92 NSCLC
HL-60(TB) leukemia = test system: HL-60(TB) leukemia
UACC-257 melanoma = test system: UACC-257 melanoma
OVCAR-4 ovarian = test system: OVCAR-4 ovarian
HT29 colon = test system: HT29 colon
COLO 205 colon = test system: COLO 205 colon
HOP-62 NSCLC = test system: HOP-62 NSCLC
HCT-116 colon = test system: HCT-116 colon
MDA-MB-231 breast = test system: MDA-MB-231 breast

| Structure (SMILES) | TGI (CAKI-1 renal) | TGI (HOP-92 NSCLC) | TGI (HL-60(TB) leukemia) | TGI (UACC-257 melanoma) | TGI (OVCAR-4 ovarian) | TGI (HT29 colon) | TGI (COLO 205 colon) | TGI (HOP-62 NSCLC) | TGI (HCT-116 colon) | GI50 (CAKI-1 renal) | GI50 (HOP-62 NSCLC) | GI50 (HOP-92 NSCLC) | GI50 (HL-60(TB) leukemia) | GI50 (UACC-257 melanoma) | GI50 (MDA-MB-231 breast) | TGI (MDA-MB-231 breast) | GI50 (OVCAR-4 ovarian) | GI50 (HT29 colon) | GI50 (COLO 205 colon) | GI50 (HCT-116 colon) |
| --- | --- | --- | --- | --- | --- | --- | --- | --- | --- | --- | --- | --- | --- | --- | --- | --- | --- | --- | --- | --- |
| O=C(O)CNS(=O)(=O)c1ccc(NC(=O)c2ccc(F)cc2)cc1 | > 100 µM | > 100 µM | > 100 µM | > 100 µM | > 100 µM | > 100 µM | > 100 µM |  |  |  |  |  |  |  |  |  |  |  |  |  |
| CC(C)COC(=O)N1N=NC2C3OC(CC3=O)C21 (stereo unspecified) | > 100 µM | > 100 µM | > 100 µM | > 100 µM | > 100 µM | > 100 µM | > 100 µM | > 100 µM | > 100 µM |  |  |  |  |  |  |  |  |  |  |  |
| CCN(CC)c1ccc(N=C2C=CC(=O)c3ncccc32)c(C)c1 | 23.4 µM | 19.7 µM | 5.15 µM | 15 µM | 4.93 µM | 29.2 µM | 5.04 µM | 37.2 µM | 6 µM |  |  |  |  |  |  |  |  |  |  |  |
| CSc1ccc(-c2cc(-c3ccc(NC(=O)CCCN4CCCC4)cc3)nc(-c3ccc(NC(=O)CCCN4CCCC4)cc3)c2)cc1 | 21.3 µM | 5.61 µM | 23.5 µM | 25.2 µM | 12.9 µM | 3.13 µM | 4.39 µM | 3.5 µM |  | 4.94 µM | 1.7 µM | 1.72 µM | 6.54 µM | 4.94 µM | 1.85 µM | 3.69 µM | 2.91 µM | 1.71 µM | 2.05 µM |  |
| NC(N)=N/N=C/c1c(-c2cccs2)nc2sccn12 | 16 µM |  | 39 µM | 37.7 µM | 20 µM | 27.1 µM |  | 23.3 µM | 17.7 µM | 2.57 µM | 11.2 µM |  | 12.8 µM | 20.3 µM | 13.4 µM | 26.7 µM | 5.89 µM | 13.2 µM |  | 4.23 µM |
| CS(=O)(=O)OCCN1CCN(C(=O)c2cccc3c(Nc4ccc(S(N)(=O)=O)cc4)c4ccccc4nc23)CC1 | > 100 µM | > 100 µM | > 100 µM | > 100 µM | > 100 µM | > 100 µM | > 82.8 µM | > 100 µM | > 57.7 µM |  |  |  |  |  |  |  |  |  |  |  |
| Cc1cc2c(cc1C)[n+](=O)c(C(=O)/C=C/c1ccc(Cl)cc1)c(C)n2[O-] | > 100 µM | > 100 µM | > 100 µM | 89.9 µM | 81.9 µM | 95.5 µM | 41.1 µM | 68.7 µM |  |  |  |  |  |  |  |  |  |  |  |  |
| ON(CCc1ccncc1)Cc1ccccc1 | > 100 µM | > 100 µM |  |  | > 100 µM | > 100 µM | > 100 µM | > 100 µM | > 100 µM |  |  |  |  |  |  |  |  |  |  |  |
| COc1ccc(Nc2ncccc2/C=C/C(=O)c2cc(OC)c(OC)c(OC)c2)cc1 | 3.88 µM | 4.28 µM |  | 2.92 µM | 3.47 µM | 3.16 µM | 3.06 µM | 3.75 µM | 2.28 µM | 1.52 µM | 1.78 µM | 1.59 µM |  | 1.53 µM | 1.94 µM | 5.74 µM | 1.62 µM | 1.6 µM | 1.69 µM | 1.02 µM |
| COc1ccc(C(O)c2cc3c(N)c(C(=O)Nc4cccc(Cl)c4C)sc3nc2C)cc1 (stereo unspecified) | 1.38 µM | 1.68 µM | 2.14 µM | 2.02 µM | 2 µM | 1.72 µM |  |  |  | 0.689 µM |  | 0.618 µM | 0.877 µM | 1 µM | 0.781 µM | 1.57 µM | 0.782 µM | 0.768 µM |  |  |
| O=C(Cn1c(=O)c(-c2ccccc2)nc2ccccc21)c1cccnc1 | > 100 µM | > 100 µM |  | > 100 µM | > 100 µM | > 100 µM | > 100 µM | > 100 µM | > 100 µM | > 100 µM | > 100 µM | 27.7 µM |  | > 100 µM | > 100 µM | > 100 µM | 46.2 µM | > 100 µM | > 100 µM | > 100 µM |
| CNc1nc(C)c(-c2nc(Nc3cccc(S(N)(=O)=O)c3)ncc2F)s1 | 37.2 µM |  | 0.108 µM | 0.232 µM | 12.5 µM | 10.8 µM | 0.0532 µM |  | 12.5 µM | 0.052 µM | < 0.0201 µM |  | 0.0309 µM | 0.0657 µM | 0.0416 µM | 5.98 µM | 0.0524 µM | 0.0605 µM | 0.0212 µM | < 0.0161 µM |
| Cn1cc(NC(=O)c2cc(NC(=O)Nc3cc(C(=O)Nc4cc(C(=O)NCCC(=N)N)n(C)c4)n(C)c3)cn2C)cc1C(=O)NCCC(=N)N | 92.1 µM | > 100 µM | > 100 µM | 45.5 µM | > 100 µM | > 100 µM | 92.9 µM | > 100 µM | > 100 µM |  |  |  |  |  |  |  |  |  |  |  |
| N=S(=O)(c1ccccc1)c1ccccc1[N+](=O)[O-] (stereo unspecified) | > 100 µM |  | > 100 µM | > 100 µM | > 100 µM | > 100 µM | > 100 µM | > 100 µM | > 100 µM |  |  |  |  |  |  |  |  |  |  |  |
| CCN(CC)CC(=O)/C=C/c1ccc(C)cc1 | 31.7 µM | 92.4 µM | 52 µM | 46 µM | 29.3 µM | 45.1 µM | 34.5 µM | > 100 µM | 32.4 µM |  |  |  |  |  |  |  |  |  |  |  |
| CCNc1c(C(=O)N(CC)CC)c(=O)[nH]c2ncccc12 | > 100 µM | > 100 µM | > 100 µM | > 100 µM | > 100 µM | > 100 µM | > 100 µM | > 100 µM | > 100 µM |  |  |  |  |  |  |  |  |  |  |  |
| O=C1CCC2CCc3cccc4oc1c2c34 (stereo unspecified) | > 100 µM | 98.6 µM | > 100 µM | > 100 µM | > 100 µM | > 100 µM | > 100 µM | > 100 µM | > 100 µM |  |  |  |  |  |  |  |  |  |  |  |
| Nc1nc2c(c3ncccc13)C(c1ccc(Cl)c(Cl)c1)Cc1ncccc1-2 (stereo unspecified) | 20.5 µM |  | 16.2 µM | 26.4 µM | 18.6 µM | 11.9 µM | 7.3 µM | 14 µM | 14.1 µM | 3.9 µM | 2.96 µM |  | 3.09 µM | 13.2 µM | 4.05 µM | 17.1 µM | 5.76 µM | 3.22 µM | 2.65 µM | 3.71 µM |
| CCOC(=O)C(=O)C1C(=O)Nc2ccccc21 (stereo unspecified) | > 100 µM | > 100 µM | > 100 µM | > 100 µM | > 100 µM | > 100 µM | > 100 µM | > 100 µM | > 100 µM |  |  |  |  |  |  |  |  |  |  |  |
